Reference: patent US9321756B2, “Azole compounds as PIM inhibitors” (priority 2011, dated 2016)
Read-outs that look alike come from different tables or passages of the source.

Key:
[1] = molecular target: full length recombinant Pim-2 (Homo sapiens (Human), UniProt Q9P1W9); assay: Pim enzyme assay (HTRF, phosphorylation of biotinylated-BAD (S112) peptide), Pim-2; type: biochemical; settings: read-out: Pim2_IC50
[2] = molecular target: full length recombinant Pim-1 (Homo sapiens (Human), UniProt P11309); assay: Pim enzyme assay (HTRF, phosphorylation of biotinylated-BAD (S112) peptide), Pim-1; type: biochemical; settings: read-out: Pim_1_IC50
full length recombinant Pim-1, sequence (P11309 whole entry): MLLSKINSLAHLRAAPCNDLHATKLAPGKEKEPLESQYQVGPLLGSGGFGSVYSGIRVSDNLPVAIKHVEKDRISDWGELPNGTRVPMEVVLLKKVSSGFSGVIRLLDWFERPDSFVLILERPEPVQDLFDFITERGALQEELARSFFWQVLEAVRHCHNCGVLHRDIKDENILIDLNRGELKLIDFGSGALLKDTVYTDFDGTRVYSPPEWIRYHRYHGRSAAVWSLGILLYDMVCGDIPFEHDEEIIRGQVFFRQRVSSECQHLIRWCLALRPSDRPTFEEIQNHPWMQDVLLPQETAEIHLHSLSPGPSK

[3] = tested on: Pim-1 stably transfected U2OS human osteogenic sarcoma line; assay: Pim cell assay U2OS (phospho-BAD normalized against total BAD), Pim-1 transfected; type: cell-based
Protocol: The cell lines used in the assay were generated by the stable transfection of either Pim-1 or Pim-2 into the U2OS human osteogenic sarcoma line. The assay for determination of the Pim activity in the engineered U2OS cell lines measures levels of phospho-BAD normalized against total BAD protein levels. It was conducted as follows:
The adherent cells were dissociated from the flasks using non-enzymatic cell dissociation solution (Sigma #C5914). […] The cells were then incubated overnight at 37° C., 5% CO2.
In addition to the 10-point dosing curve of the test compound, DMSO alone was run as the high control.
This dilution in DMSO was then diluted again into cell growth medium. Aliquots (12 μL) of the compound diluted in growth medium were then transferred to the appropriate wells of the 96-well plates containing cells to a final DMSO concentration of 0.3%. The cell plates were then incubated with compound for 29 min at 37° C., 5% CO2.
The cell plates containing lysis buffer were then immediately stored at −70° C.
These prepared lysates were then assayed for phospho and total BAD according to the manufacturer's protocols (Meso Scale Diagnostics, Cat#K15103C-3 & #K15103D-3). The plates were read on the MSD Sector Imager 6000, and results were calculated according to the assay protocols ((% Phosphoprotein=((2×Phospho signal)/(Phospho signal+Total signal))×100)).

[4] = molecular target: full length recombinant Pim-3 (Homo sapiens (Human), UniProt Q86V86); assay: Pim enzyme assay (HTRF, phosphorylation of biotinylated-BAD (S112) peptide), Pim-3; type: biochemical; settings: read-out: Pim3 IC50
Description: Pim-3 was purchased from Millipore (UK).
The phosphorylation of biotinylated-BAD (S112) peptide by full length recombinant Pim-1, Pim-2, or Pim-3 protein was detected with streptavidin:Allophycocyanin (APC) conjugate and a europium (Eu) labeled antibody directed against phosphorylated-BAD (S112). […] The fluorescence is directly proportional to the amount of phosphorylated BAD peptide present in the reaction.
A reference compound was included on each assay plate in order to validate that plate; on one plate of every assay run, two additional reference compounds were included.
The final buffer conditions were as follows: 60 mM Hepes, pH 7.0, 0.05% BSA, 2 mM DTT. Incubations were carried out at RT (22° C.) for 2 h for Pim-1, 1 h and 30 min for Pim-3, and 45 min for Pim-2. The reaction was then stopped by the addition of 3 mM EDTA, and fluorescence was measured by an HTRF® Rubystar microplate reader. For each plate, percent of control (POC) values were calculated for each well. Values for the IC50 IP were estimated using a standard 4-parameter logistic model.

[5] = read-out: U2OS Pim1_Cell_IC50, U2OS cells, Pim-1 transfected
[6] = Homo sapiens, U2OS, read-out: U2OS Pim1_Cell_IC50
[7] = Homo sapiens, U2OS, read-out: U2OS Pim1_Cell_IC50, U2OS cells, Pim-1 transfected

full length recombinant Pim-2, sequence (Q9P1W9 whole entry): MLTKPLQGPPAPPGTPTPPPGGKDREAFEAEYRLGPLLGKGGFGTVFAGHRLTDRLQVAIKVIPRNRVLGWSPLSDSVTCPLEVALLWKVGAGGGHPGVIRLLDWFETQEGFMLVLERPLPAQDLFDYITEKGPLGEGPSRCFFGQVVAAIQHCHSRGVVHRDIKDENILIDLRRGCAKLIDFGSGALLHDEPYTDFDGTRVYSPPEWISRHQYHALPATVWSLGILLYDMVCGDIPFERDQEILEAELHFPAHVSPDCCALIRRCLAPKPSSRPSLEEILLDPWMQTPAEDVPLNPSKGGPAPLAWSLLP

Row | Structure (SMILES) | IC50 ([1]; Pim-2 enzyme assay) [nM] | IC50 ([2]; Pim-1 enzyme assay) [nM] | IC50 ([4]; Pim-3 enzyme assay) [nM] | further results
1 | Nc1nnc(-c2ccc3[nH]cc(-c4cccc(N5CCCC5)n4)c3c2)s1 [Example 14, 5-(3-(6-(pyrrolidin-1-yl)pyridin-2-yl)-1H-indol-5-yl)-1,3,4-thiadiazol-2-amine] | 42 | – | – | IC50 [2]: 11.1 nM; IC50 [3, 5]: 159 nM
2 | Nc1nnc(-c2ccc3[nH]cc(-c4cncc(NC5CC5)n4)c3c2)s1 [Example 15, 5-(3-(6-(cyclopropylamino)pyrazin-2-yl)-1H-indol-5-yl)-1,3,4-thiadiazol-2-amine] | 20.1 | – | – | IC50 [2]: 4.57 nM; IC50 [3, 7]: 108 nM
3 | CN1CCN(c2cccc(-c3c[nH]c4ccc(-c5nnc(N)s5)cc34)n2)CC1=O [Example 30, 4-(6-(5-(5-amino-1,3,4-thiadiazol-2-yl)-1H-indol-3-yl)pyridin-2-yl)-1-methylpiperazin-2-one] | 52.7 | – | 2.5 | IC50 [2]: 13.3 nM; IC50 [3, 7]: 1170 nM
4 | c1cc2[nH]cc(-c3cncc(C4CC4)n3)c2cc1-c1nnc(N2CCCC2)o1 [Example 37, 2-(3-(6-Cyclopropylpyrazin-2-yl)-1H-indol-5-yl)-5-(pyrrolidin-1-yl)-1,3,4-oxadiazole 2,2,2-trifluoroacetate] | – | 9.14 | – | IC50 [1]: 80.1 nM; IC50 [3, 7]: 237 nM; IC50 [4]: 6.78 nM
5 | Fc1ccccc1-c1c[nH]c2ccc(-c3nnc(NCc4cccc5[nH]ccc45)s3)cc12 [Example 143, 5-(3-(2-fluorophenyl)-1H-indol-5-yl)-N-(1H-indol-4-ylmethyl)-1,3,4-thiadiazol-2-amine] | 3020 | 145 | 84.5 | IC50 [3, 6]: 5200 nM
6 | Nc1nnc(-c2ccc3[nH]cc(-c4cccc(N5CCCC5)n4)c3c2)s1 [Example 176, 5-(3-(6-(1-pyrrolidinyl)-2-pyridinyl)-1H-indol-5-yl)-1,3,4-thiadiazol-2-amine] | 104 | – | – | IC50 [2]: 43.5 nM; IC50 [3, 5]: 526 nM
7 | CC(C)Oc1cccc(-c2c[nH]c3ccc(-c4nnc(N)o4)cc23)c1 [Example 85, 5-(3-(3-(1-methylethoxy)phenyl)-1H-indol-5-yl)-1,3,4-oxadiazol-2-amine] | 385 | 225 | 81.8 | –
8 | CC(=O)Nc1ccc(CNc2nnc(-c3ccc4[nH]cc(-c5ccc(F)cc5F)c4c3)s2)cc1 [Example 148, N-(4-(((5-(3-(2,4-difluorophenyl)-1H-indol-5-yl)-1,3,4-thiadiazol-2-yl)amino)methyl)phenyl)acetamide] | > 3000 | 777 | 1270 | –
9 | Fc1ccccc1-c1c[nH]c2ccc(-c3nnc(NCc4ccc5[nH]ccc5c4)s3)cc12 [Example 142, 5-(3-(2-fluorophenyl)-1H-indol-5-yl)-N-(1H-indol-5-ylmethyl)-1,3,4-thiadiazol-2-amine] | 1480 | 109 | 59.5 | –
10 | CC(Nc1nnc(-c2ccc3[nH]cc(-c4ccccn4)c3c2)o1)c1ccccc1 (centres unmarked) [Example 267, N-(1-phenylethyl)-5-(3-(2-pyridinyl)-1H-indol-5-yl)-1,3,4-oxadiazol-2-amine] | 231 | 97.2 | 56.1 | –
11 | O=c1[nH]nc(-c2ccc3[nH]cc(-c4cncc(C5CC5)n4)c3c2)o1 [Example 38, 5-(3-(6-Cyclopropylpyrazin-2-yl)-1H-indol-5-yl)-1,3,4-oxadiazol-2(3H)-one 2,2,2-trifluoroacetate] | – | 65.5 | – | IC50 [1]: 54.5 nM; IC50 [4]: 37.7 nM
12 | Nc1nnc(-c2ccc3[nH]cc(-c4cncc(-c5ccc(F)cc5)n4)c3c2)o1 [Example 7, 5-(3-(6-(4-fluorophenyl)pyrazin-2-yl)-1H-indol-5-yl)-1,3,4-oxadiazol-2-amine] | 42.5 | 28.8 | 19.7 | –

The next lines start with results.

Row | IC50 ([1]; Pim-2 enzyme assay) [nM] | IC50 ([2]; Pim-1 enzyme assay) [nM] | IC50 ([4]; Pim-3 enzyme assay) [nM] | Structure (SMILES) | further results
13 | 244 | 73.2 | 13.4 | N[C@H]1CCN(c2nnc(-c3ccc4[nH]cc(-c5ccccc5F)c4c3)s2)C1 (stereo in doubt) [Example 140, 1-(5-(3-(2-fluorophenyl)-1H-indol-5-yl)-1,3,4-thiadiazol-2-yl)-3-pyrrolidinamine] | IC50 [3, 6]: 871 nM
14 | 57.3 | 16.5 | 21.8 | Nc1nnc(-c2ccc3[nH]cc(-c4cncc(-c5ccccc5Cl)n4)c3c2)o1 [Example 117, 5-(3-(6-(2-chlorophenyl)-2-pyrazinyl)-1H-indol-5-yl)-1,3,4-oxadiazol-2-amine] | IC50 [3, 7]: 227 nM
15 | 106 | 29.3 | 18.4 | Fc1ccccc1-c1c[nH]c2ccc(-c3nnc(N[C@H]4CCCNC4)s3)cc12 (stereo in doubt) [Example 139, N-(5-(3-(2-fluorophenyl)-1H-indol-5-yl)-1,3,4-thiadiazol-2-yl)-3-piperidinamine] | IC50 [3, 7]: 578 nM
16 | 223 | 98.1 | 47 | Nc1nnc(-c2ccc3[nH]cc(-c4cccc(N5CCCCC5=O)n4)c3c2)s1 [Example 181, 1-(6-(5-(5-amino-1,3,4-thiadiazol-2-yl)-1H-indol-3-yl)-2-pyridinyl)-2-piperidinone] | IC50 [3, 6]: 2260 nM
17 | 159 | 41 | 23.6 | C[C@@H]1CCCN(c2cccc(-c3c[nH]c4ccc(-c5nnc(N)s5)cc34)n2)C1 (stereo in doubt) [Example 174, 5-(3-(6-(3-methyl-1-piperidinyl)-2-pyridinyl)-1H-indol-5-yl)-1,3,4-thiadiazol-2-amine] | IC50 [3, 6]: 998 nM
18 | 114 | 40.5 | – | Nc1nnc(-c2ccc3[nH]cc(-c4cccc(OC5CCCCC5)n4)c3c2)s1 [Example 173, 5-(3-(6-(cyclohexyloxy)-2-pyridinyl)-1H-indol-5-yl)-1,3,4-thiadiazol-2-amine] | IC50 ([3]; Homo sapiens, U2OS cells, Pim-1 transfected, read-out: U2OS Pim1_Cell_IC50): 1020 nM
19 | 140 | 92.6 | 26 | Nc1nnc(-c2ccc3[nH]cc(-c4ccccc4F)c3c2)o1 [Example 84, 5-(3-(2-fluorophenyl)-1H-indol-5-yl)-1,3,4-oxadiazol-2-amine] | –
20 | > 3000 | 1890 | 207 | CNc1nnc(-c2ccc3[nH]cc(-c4cccc(C(F)(F)F)c4)c3c2)s1 [Example 224, N-methyl-5-(3-(3-(trifluoromethyl)phenyl)-1H-indol-5-yl)-1,3,4-thiadiazol-2-amine] | –
21 | 1340 | 956 | 506 | Nc1nnc(-c2ccc3[nH]cc(-c4cnc(OC5CCCC5)cn4)c3c2)s1 [Example 195, 5-(3-(5-(cyclopentyloxy)-2-pyrazinyl)-1H-indol-5-yl)-1,3,4-thiadiazol-2-amine] | –
22 | 2640 | 1520 | 409 | CNc1nnc(-c2ccc3[nH]cc(-c4csc(-c5ccoc5)n4)c3c2)s1 [Example 240, 5-(3-(2-(3-furanyl)-1,3-thiazol-4-yl)-1H-indol-5-yl)-N-methyl-1,3,4-thiadiazol-2-amine] | –
23 | 2900 | 2270 | 836 | Cc1ccn(-c2cnc(-c3c[nH]c4ccc(-c5nnc(N)s5)cc34)cn2)n1 [Example 197, 5-(3-(5-(3-methyl-1H-pyrazol-1-yl)-2-pyrazinyl)-1H-indol-5-yl)-1,3,4-thiadiazol-2-amine] | –
24 | 146 | 157 | 29.2 | Nc1nnc(-c2ccc3[nH]cc(-c4cncc(Cl)n4)c3c2)o1 [Example 102, 5-(3-(6-chloro-2-pyrazinyl)-1H-indol-5-yl)-1,3,4-oxadiazol-2-amine] | –
25 | 602 | 161 | 94.7 | C[C@H]1CCCCN1c1nc(-c2c[nH]c3ccc(-c4nnc(N)s4)cc23)cs1 (stereo in doubt) [Example 184, 5-(3-(2-(2-methyl-1-piperidinyl)-1,3-thiazol-4-yl)-1H-indol-5-yl)-1,3,4-thiadiazol-2-amine] | –
26 | > 3000 | 2800 | 1470 | CNc1nnc(-c2ccc3[nH]cc(-c4cccc(-c5ccccc5)c4)c3c2)s1 [Example 22, 5-(3-(biphenyl-3-yl)-1H-indol-5-yl)-N-methyl-1,3,4-thiadiazol-2-amine] | –
